Our source for the GI50 and TGI values is PubChem BioAssay (NCI).

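Cells were grown in 96-well plates and exposed to each compound for 48 hours at five concentrations; endpoints were interpolated linearly between bracketing concentrations, or set to the highest concentration if not reached. GI50: concentration for 50% inhibition of growth. At the TGI there is no net growth.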

Among the test systems are M14 melanoma; MALME-3M melanoma; NCI/ADR-RES ovarian; OVCAR-5 ovarian; OVCAR-8 ovarian; SK-MEL-2 melanoma; SNB-75 CNS; TK-10 renal; HT29 colon; NCI-H522 lung.
Experiment in all cases: DTP human tumour cell line panel, 48 h

As to `Cc1ccc(C)c(-n2c(-c3ccc(Br)cc3)csc2=NC(=O)c2ccccc2F)c1`, the GI50 in the assay with M14 melanoma, in the assay with MALME-3M melanoma, with NCI/ADR-RES ovarian, in the assay with OVCAR-5 ovarian, in the assay with OVCAR-8 ovarian and with SK-MEL-2 melanoma was more than 100 µM each time. Further, the GI50 in the assay on SNB-75 CNS and with TK-10 renal was more than 100 µM in each case. The total growth inhibition concentration (TGI) in the assay with M14 melanoma, in the assay with MALME-3M melanoma, with NCI/ADR-RES ovarian, in the assay on OVCAR-5 ovarian, in the assay on OVCAR-8 ovarian and in the assay on SK-MEL-2 melanoma was more than 100 µM each time. The TGI in the assay with SNB-75 CNS and in the assay with TK-10 renal was more than 100 µM in each case.

Regarding `CCOC(=O)c1[nH]c2cccc3c2c1CC(Br)C3=O` (stereo unspecified), the TGI (in general, the concentration at which net growth stops) in the assay with HT29 colon is 47.7 µM; in the assay on M14 melanoma, 27.2 µM; with MALME-3M melanoma, 28.2 µM; in the assay with NCI/ADR-RES ovarian it was 30.3 µM; in the assay on OVCAR-5 ovarian, 34.5 µM; with OVCAR-8 ovarian, 41.5 µM. Further, in the assay with TK-10 renal, the TGI is 28.1 µM.

Take `O=C1CCCSCCCC(=O)CCCSCCC1`: the TGI in the assay with HT29 colon, in the assay with M14 melanoma, with NCI-H522 lung, in the assay with NCI/ADR-RES ovarian, in the assay with OVCAR-5 ovarian and in the assay with OVCAR-8 ovarian was more than 100 µM throughout. Also, the total growth inhibition concentration (TGI) with SNB-75 CNS and with TK-10 renal was more than 100 µM each time.

Turning to `O=c1oc2ccccc2c(Cl)c1Cl`, the GI50 (in general, the concentration at which growth is held to half of that of the control) is 2.25 µM in the assay with HT29 colon; 3.47 µM in the assay on M14 melanoma; 2.23 µM with MALME-3M melanoma; 3.46 µM in the assay on NCI-H522 lung; 5.85 µM in the assay on NCI/ADR-RES ovarian; 14.7 µM in the assay on OVCAR-5 ovarian. Further, the GI50 was 4.23 µM in the assay on OVCAR-8 ovarian, 2.85 µM in the assay with SNB-75 CNS and 1.88 µM in the assay with TK-10 renal. In addition, the TGI worked out at 4.85 µM in the assay with HT29 colon; 14.1 µM in the assay with M14 melanoma; 12.4 µM with MALME-3M melanoma; 15.5 µM in the assay on NCI-H522 lung; 21.4 µM with NCI/ADR-RES ovarian; 30.1 µM with OVCAR-5 ovarian. Moreover, the concentration for total growth inhibition (TGI) in the assay on OVCAR-8 ovarian came out at 17.4 µM; in the assay with SNB-75 CNS, 12.9 µM; in the assay with TK-10 renal it was 3.7 µM.

In the case of `C=C(CN1CCc2ccccc2C1)c1ccc(/C=C/C(=O)Nc2ccccc2N)cc1`, the GI50 was 59.9 µM with HT29 colon; 0.309 µM in the assay with MALME-3M melanoma; 0.783 µM in the assay with NCI-H522 lung; 4.27 µM with NCI/ADR-RES ovarian; 12.8 µM in the assay with OVCAR-5 ovarian; 5.86 µM in the assay on OVCAR-8 ovarian. Besides, the GI50 in the assay on SK-MEL-2 melanoma is 7.51 µM; in the assay on TK-10 renal, 3.88 µM. Further, the TGI in the assay with HT29 colon was more than 100 µM; in the assay with MALME-3M melanoma it was 8.04 µM; in the assay with NCI-H522 lung, 14.7 µM; in the assay on NCI/ADR-RES ovarian, more than 100 µM; in the assay on OVCAR-5 ovarian, more than 100 µM; with OVCAR-8 ovarian, more than 100 µM. The concentration for total growth inhibition (TGI) was more than 100 µM in the assay on SK-MEL-2 melanoma and 26.9 µM in the assay with TK-10 renal.

Consider `CCN(CC)c1ccc2[nH]c3c(C(N)=O)cc(=O)c(=O)c=3oc2c1`, for which the GI50 in the assay with HT29 colon is 2.97 µM; in the assay with M14 melanoma, 1.61 µM; with MALME-3M melanoma, 1.16 µM; in the assay with NCI/ADR-RES ovarian it was 1.72 µM; in the assay with OVCAR-5 ovarian it was 3.66 µM; with OVCAR-8 ovarian, 2.05 µM. In addition, the GI50 in the assay with SK-MEL-2 melanoma was 1.65 µM; in the assay on SNB-75 CNS, 2.04 µM. Further, the total growth inhibition concentration (TGI) in the assay with HT29 colon was 12.9 µM; in the assay on M14 melanoma it was 4.17 µM; in the assay with MALME-3M melanoma, 2.96 µM; in the assay on NCI/ADR-RES ovarian, 11.8 µM; in the assay on OVCAR-5 ovarian it was 33.4 µM; in the assay with OVCAR-8 ovarian, more than 100 µM. Also, the concentration for total growth inhibition (TGI) in the assay on SK-MEL-2 melanoma amounted to 6.1 µM; in the assay with SNB-75 CNS, 8.59 µM.

For `CCOC(=O)c1sc2ncn(Cc3cccc(Cl)c3)c(=O)c2c1C`, the GI50 in the assay on HT29 colon is 19.3 µM; in the assay with M14 melanoma, 15.4 µM; in the assay on NCI-H522 lung it was 10.9 µM; in the assay on NCI/ADR-RES ovarian, 7.78 µM; in the assay with OVCAR-5 ovarian, 17.4 µM; with OVCAR-8 ovarian it was 15.1 µM. For the same compound, the GI50 in the assay with SK-MEL-2 melanoma is 15.1 µM; with SNB-75 CNS it was 16.4 µM. Further, the concentration for total growth inhibition (TGI) with HT29 colon worked out at 33.4 µM; in the assay on M14 melanoma, 28.7 µM; in the assay on NCI-H522 lung, 23.3 µM; with NCI/ADR-RES ovarian it was 20.7 µM; in the assay with OVCAR-5 ovarian, 31.2 µM; with OVCAR-8 ovarian it was 28.4 µM. The TGI with SK-MEL-2 melanoma worked out at 29.1 µM; in the assay with SNB-75 CNS it was 29.9 µM.

For the compound `CN(C)CCCNC(=O)c1cc(NC(=O)c2cc(NC(=O)CCCN3c4ccccc4C=Cc4ccccc43)cn2C)cn1C`, the GI50 in the assay on HT29 colon was 3.59 µM; with M14 melanoma, 2.97 µM; with NCI-H522 lung, 4.11 µM; in the assay on NCI/ADR-RES ovarian, 23.6 µM; in the assay on OVCAR-5 ovarian it was 19.7 µM; in the assay on OVCAR-8 ovarian, 17.3 µM. The GI50 is 13.6 µM in the assay on SNB-75 CNS and 2.74 µM with TK-10 renal. Also, the TGI was more than 100 µM in the assay on HT29 colon; more than 100 µM in the assay on M14 melanoma; 19.8 µM in the assay on NCI-H522 lung; 59.9 µM with NCI/ADR-RES ovarian; 46.9 µM in the assay with OVCAR-5 ovarian; 72.2 µM in the assay with OVCAR-8 ovarian. The TGI came out at 62.9 µM with SNB-75 CNS and 13.9 µM with TK-10 renal.

In the case of `COC(=O)[C@H](C)[C@H]1CC[C@@](C)([C@H]2CC3C(C)(C)[C@H]4CCC(C)=C[C@H]4C[C@@]3(C)O2)OO1` (stereo partly specified), the TGI in the assay with HT29 colon stood at 27.2 µM; in the assay with M14 melanoma, 25.8 µM; in the assay on MALME-3M melanoma, 28.3 µM; with NCI-H522 lung, 3.32 µM; in the assay with OVCAR-5 ovarian, 26.2 µM; in the assay with OVCAR-8 ovarian, 26.2 µM. Moreover, the total growth inhibition concentration (TGI) was determined as 31.4 µM in the assay on SK-MEL-2 melanoma, 18.1 µM in the assay on SNB-75 CNS and 28.9 µM with TK-10 renal.

On to `Cc1cc(N(CCC#N)CCC#N)ccc1N=Nc1ccccc1[N+](=O)[O-]`, for which the TGI with HT29 colon, with M14 melanoma, in the assay with MALME-3M melanoma, with NCI-H522 lung, in the assay on OVCAR-5 ovarian and with OVCAR-8 ovarian was more than 100 µM each time. For the same compound, the TGI in the assay with SK-MEL-2 melanoma, in the assay on SNB-75 CNS and in the assay on TK-10 renal was more than 100 µM in each case.
